pKi: −log10 of the molar value. Some results are limits rather than exact numbers.

GST-Bcl-2, sequence (P10415 whole entry): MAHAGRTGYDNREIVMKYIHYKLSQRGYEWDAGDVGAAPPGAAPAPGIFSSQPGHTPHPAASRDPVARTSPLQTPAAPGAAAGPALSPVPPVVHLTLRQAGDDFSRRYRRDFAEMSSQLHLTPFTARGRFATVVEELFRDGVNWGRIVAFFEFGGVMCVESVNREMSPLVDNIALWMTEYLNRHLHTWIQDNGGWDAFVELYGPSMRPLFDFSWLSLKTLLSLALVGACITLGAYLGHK

For this assay, the target named is GST-Bcl-2 (Homo sapiens, UniProt P10415). Nature of the assay: Time Resolved-Fluorescence Resonance Energy Transfer (TR-FRET) Bcl-2 binding assay. The settings on record: competition with F-Bak peptide probe (100 nM); GST-Bcl-2 1 nM; Tb-anti-GST 1 nM; 3 hours at room temperature; Wang's equation. On the procedure:
Determination of the utility of compounds having Formula (I) as binders to and inhibitors of anti-apoptotic Bcl-2 proteins was performed using the Time Resolved-Fluorescence Resonance Energy Transfer (TR-FRET) Assay. Tb-anti-GST antibody was purchased from Invitrogen (Catalog No. PV4216).
Representative compounds were serially diluted in dimethyl sulfoxide (DMSO) starting at 50 μM (2× starting concentration; 10% DMSO) and 10 μL were transferred into a 384-well plate. The samples are then mixed on a shaker for 1 minute and incubated for an additional 3 hours at room temperature. For each assay, the probe/antibody and protein/probe/antibody were included on each assay plate as negative and positive controls, respectively. Fluorescence was measured on the Envision (Perkin Elmer) using a 340/35 nm excitation filter and 520/525 (F-Bak peptide) and 495/510 nm (Tb-labeled anti-Histidine antibody) emission filters.
The samples were then mixed on a shaker for 1 minute and incubated for an additional 3 hours at room temperature. For each assay, the probe/antibody and protein/probe/antibody were included on each assay plate as negative and positive controls, respectively. Fluorescence was measured on the Envision (Perkin Elmer) using a 340/35 nm excitation filter and 520/525 (F-Bak peptide) and 495/510 nm (Tb-labeled anti-Histidine antibody) emission filters.
The inhibition constant (Ki) is the dissociation constant of an enzyme-inhibitor complex or a protein/small molecule complex, wherein the small molecule is inhibiting binding of one protein to another protein. So a large Ki value indicates a low binding affinity and a small Ki value indicates a high binding affinity.
On the technique in general: TR-FRET usually uses a lanthanide donor and a delayed reading to cut background.
As to `CC1(C)CC(c2ccc(Cl)cc2)=C(CN2CCN(c3ccc(C(=O)NS(=O)(=O)c4ccc(OCC5(F)CCOCC5)c(Cl)c4)c(Oc4cc5cc[nH]c5cc4F)c3)CC2)CO1` [Example 413, N-({3-chloro-4-[(4-fluorotetrahydro-2H-pyran-4-yl)methoxy]phenyl}sulfonyl)-4-(4-{[4-(4-chlorophenyl)-6,6-dimethyl-5,6-dihydro-2H-pyran-3-yl]methyl}piperazin-1-yl)-2-[(6-fluoro-1H-indol-5-yl)oxy]benzamide], the negative logarithm of the Ki (pKi) (as a rule, the Ki on a negative log10 scale, so that one unit is a factor of ten) is 9.13.

Compound `CC1(C)CCC(CN2CCN(c3ccc(C(=O)NS(=O)(=O)c4ccc(N[C@@H]5CCN(C6COC6)C5)c([N+](=O)[O-])c4)c(Oc4cnc(N)c(Cl)c4)c3)CC2)=C(c2ccc(Cl)cc2)C1` [Example 455, 2-[(6-amino-5-chloropyridin-3-yl)oxy]-4-(4-{[2-(4-chlorophenyl)-4,4-dimethylcyclohex-1-en-1-yl]methyl}piperazin-1-yl)-N-[(3-nitro-4-{[(3R)-1-(oxetan-3-yl)pyrrolidin-3-yl]amino}phenyl)sulfonyl]benzamide] showed a pKi of 10.96.

On to `CC1(C)CCC(CN2CCN(c3ccc(C(=O)NS(=O)(=O)c4cnc(OC[C@H]5CC[C@H](O)CC5)c(Cl)c4)c(Oc4cc(F)cc5[nH]ncc45)c3)CC2)=C(c2ccc(Cl)cc2)C1` [Example 414, N-({5-chloro-6-[(trans-4-hydroxycyclohexyl)methoxy]pyridin-3-yl}sulfonyl)-4-(4-{[2-(4-chlorophenyl)-4,4-dimethylcyclohex-1-en-1-yl]methyl}piperazin-1-yl)-2-[(6-fluoro-1H-indazol-4-yl)oxy]benzamide], for which the negative-log Ki (pKi) was 10.85.

`CC1(C)CCC(CN2CCN(c3ccc(C(=O)NS(=O)(=O)c4cnc(OCC5CCC(C)(O)CC5)c(Cl)c4)c(Oc4cccc5[nH]nc(N)c45)c3)CC2)=C(c2ccc(Cl)cc2)C1` (stereo not drawn) [Example 445, 2-[(3-amino-1H-indazol-4-yl)oxy]-N-({5-chloro-6-[(trans-4-hydroxy-4-methylcyclohexyl)methoxy]pyridin-3-yl}sulfonyl)-4-(4-{[2-(4-chlorophenyl)-4,4-dimethylcyclohex-1-en-1-yl]methyl}piperazin-1-yl)benzamide]: the pKi was greater than 11.00.

`CC1(C)CCC(CN2CCN(c3ccc(C(=O)NS(=O)(=O)c4ccc(NC[C@H]5CN(C6CC6)CCO5)c([N+](=O)[O-])c4)c(Oc4cnc(N)c(Cl)c4)c3)CC2)=C(c2ccc(Cl)cc2)C1` [Example 442, 2-[(6-amino-5-chloropyridin-3-yl)oxy]-4-(4-{[2-(4-chlorophenyl)-4,4-dimethylcyclohex-1-en-1-yl]methyl}piperazin-1-yl)-N-{[4-({[(2S)-4-cyclopropylmorpholin-2-yl]methyl}amino)-3-nitrophenyl]sulfonyl}benzamide] had a negative logarithm of the Ki (pKi) greater than 11.00.

For the compound `CCC1(O)CCC(CNc2ccc(S(=O)(=O)NC(=O)c3ccc(N4CCN(CC5=C(c6ccc(Cl)cc6)CC(C)(C)CC5)CC4)cc3Oc3cnc(N)c(Cl)c3)cc2[N+](=O)[O-])CC1` (stereo not drawn) [Example 447, 2-[(6-amino-5-chloropyridin-3-yl)oxy]-4-(4-{[2-(4-chlorophenyl)-4,4-dimethylcyclohex-1-en-1-yl]methyl}piperazin-1-yl)-N-[(4-{[(cis-4-ethyl-4-hydroxycyclohexyl)methyl]amino}-3-nitrophenyl)sulfonyl]benzamide], the pKi was 10.54.

Turning to `CC1(C)CCC(CN2CCN(c3ccc(C(=O)NS(=O)(=O)c4cnc(OCC5CCC(C)(O)CC5)c(Cl)c4)c(Oc4cc(F)cc5[nH]ncc45)c3)CC2)=C(c2ccc(Cl)cc2)C1` (stereo not drawn) [Example 424, N-({5-chloro-6-[(trans-4-hydroxy-4-methylcyclohexyl)methoxy]pyridin-3-yl}sulfonyl)-4-(4-{[2-(4-chlorophenyl)-4,4-dimethylcyclohex-1-en-1-yl]methyl}piperazin-1-yl)-2-[(6-fluoro-1H-indazol-4-yl)oxy]benzamide], the pKi was greater than 11.00.

The compound “2-[(6-amino-5-chloropyridin-3-yl)oxy]-4-(4-{[2-(4-chlorophenyl)-4,4-dimethylcyclohex-1-en-1-yl]methyl}piperazin-1-yl)-N-{[4-({[4-({[4-(methoxymethyl)cyclohexyl]methyl}amino)-3-nitrophenyl]sulfonyl}amino)-3-nitrophenyl]sulfonyl}benzamide [Example 454]” gave a negative-log Ki (pKi) of 10.62.

Turning to `CC1(C)CCC(CN2CCN(c3ccc(C(=O)NS(=O)(=O)c4ccc(NCC5(F)CCOCC5)c([N+](=O)[O-])c4)c(Oc4ccc(F)c5[nH]ncc45)c3)CC2)=C(c2ccc(Cl)cc2)C1` [Example 423, 4-(4-{[2-(4-chlorophenyl)-4,4-dimethylcyclohex-1-en-1-yl]methyl}piperazin-1-yl)-2-[(7-fluoro-1H-indazol-4-yl)oxy]-N-[(4-{[(4-fluorotetrahydro-2H-pyran-4-yl)methyl]amino}-3-nitrophenyl)sulfonyl]benzamide], the pKi was greater than 11.00.

Compound `CC1(C)CCC(CN2CCN(c3ccc(C(=O)NS(=O)(=O)c4cnc(OCC5(F)CCC(C)(O)CC5)c(Cl)c4)c(Oc4cnc(N)c(Cl)c4)c3)CC2)=C(c2ccc(Cl)cc2)C1` (stereo not drawn) [Example 444, 2-[(6-amino-5-chloropyridin-3-yl)oxy]-N-({5-chloro-6-[(cis-1-fluoro-4-hydroxy-4-methylcyclohexyl)methoxy]pyridin-3-yl}sulfonyl)-4-(4-{[2-(4-chlorophenyl)-4,4-dimethylcyclohex-1-en-1-yl]methyl}piperazin-1-yl)benzamide] had a pKi of 10.74.

Consider `CC(C)(C)OC(=O)N1CCC(c2ccc(Cl)cc2)=C(CN2CCN(c3ccc(C(=O)NS(=O)(=O)c4cnc(OCC5(F)CCOCC5)c(Cl)c4)c(Oc4cc5cc[nH]c5cc4F)c3)CC2)C1` [Example 416, tert-butyl 5-[(4-{4-[({5-chloro-6-[(4-fluorotetrahydro-2H-pyran-4-yl)methoxy]pyridin-3-yl}sulfonyl)carbamoyl]-3-[(6-fluoro-1H-indol-5-yl)oxy]phenyl}piperazin-1-yl)methyl]-4-(4-chlorophenyl)-3,6-dihydropyridine-1(2H)-carboxylate], for which the negative logarithm of the Ki (pKi) is 8.13.

Consider `CC1(C)CCC(CN2CCN(c3ccc(C(=O)NS(=O)(=O)c4ccc(NCC5CCC(C)(O)CC5)c([N+](=O)[O-])c4)c(Oc4cnc(N)c(Cl)c4)c3)CC2)=C(c2ccc(Cl)cc2)C1` (stereo not drawn) [Example 437, 2-[(6-amino-5-chloropyridin-3-yl)oxy]-4-(4-{[2-(4-chlorophenyl)-4,4-dimethylcyclohex-1-en-1-yl]methyl}piperazin-1-yl)-N-[(4-{[(cis-4-hydroxy-4-methylcyclohexyl)methyl]amino}-3-nitrophenyl)sulfonyl]benzamide], for which the negative-log Ki (pKi) is greater than 11.00.

For `CC1(C)CCC(CN2CCN(c3ccc(C(=O)NS(=O)(=O)c4ccc(NCC5(F)CCOCC5)c([N+](=O)[O-])c4)c(Oc4cccc5[nH]nc(N)c45)c3)CC2)=C(c2ccc(Cl)cc2)C1` [Example 428, 2-[(3-amino-1H-indazol-4-yl)oxy]-4-(4-{[2-(4-chlorophenyl)-4,4-dimethylcyclohex-1-en-1-yl]methyl}piperazin-1-yl)-N-[(4-{[(4-fluorotetrahydro-2H-pyran-4-yl)methyl]amino}-3-nitrophenyl)sulfonyl]benzamide], the pKi is greater than 11.00.

Values taken from patent US9029404B2, “Apoptosis-inducing agents for the treatment of cancer and immune and autoimmune diseases” (AbbVie Inc., priority 2008, dated 2015).
